Values of other authors as cited in patent EP3663750B1, “SCAFFOLDED NUCLEIC ACID POLYMER PARTICLES AND METHODS OF MAKING AND USING” (Life Technologies Corporation, priority 2009, dated 2010).

details: Oil Soluble Azo Initiator Compounds; temperature at which the initiator has a half-life of 10h

| Structure (SMILES) | 10 hour half-life decomposition temperature |
| --- | --- |
| CC(C)CC(C)(C#N)N=NC(C)(C#N)CC(C)C (centres unmarked) | 51 °C |
| CCC(C)(C#N)N=NC(C)(C#N)CC (centres unmarked) | 67 °C |
| N#CC1(N=NC2(C#N)CCCCC2)CCCCC1 | 88 °C |
| C=CCNC(=O)C(C)(C)N=NC(C)(C)C(=O)NCC=C | 96 °C |
| CCCCNC(=O)C(C)(C)N=NC(C)(C)C(=O)NCCCC | 110 °C |
| CC(C)(N=NC(C)(C)C(=O)NC1CCCCC1)C(=O)NC1CCCCC1 | 111 °C |

same assay, conditions: Water Soluble Azo Initiator Compounds; temperature at which the initiator has a half-life of 10h

| Structure (SMILES) | 10 hour half-life decomposition temperature |
| --- | --- |
| CC(C)(N=NC(C)(C)C1=NCCN1CCO)C1=NCCN1CCO | 60 °C |
| CC(C)(N=NC(C)(C)C(=N)N1CCCC1)C(=N)N1CCCC1 | 67 °C |
| CC(C)(N=NC(C)(C)C(=O)NCCO)C(=O)NCCO | 87 °C |

same assay, conditions: buffer

| Structure (SMILES) | 10 hour half-life decomposition temperature |
| --- | --- |
| CC(C)(N=NC(C)(C)C1=NCCN1)C1=NCCN1 [drawing 1] | 44 °C |
| CC(C)(N=NC(C)(C)C1=NCCN1)C1=NCCN1 [drawing 6] | 61 °C |
